Measured values taken from patent US20140094462A1, “SONIC HEDGEHOG MODULATORS” (priority 2009, published 2014).
Where two headings read alike, the source gives them in different places. Blank lines part the entries; values can stand above or below the compound they belong to.

What was measured:
[1] = rcm bond
[2] = biological target: T1, ShhN protein (Homo sapiens, UniProt Q15465); assay: Surface Plasmon Resonance (SPR) protein binding assay on immobilized ShhN; conditions: SPR, Biacore T100, ShhN immobilized on CM4 chip, 25° C., compound 0.78 μM-25 μM; read-out: KD
T1 construct: auto-cleavage of full length Shh into an active 20 kD N-terminal fragment (ShhN); purchased R&D Systems
Description: Biacore™ T100 (GE Healthcare, Uppsala, Sweden) was used to perform the experiments described herein. Sensor surface preparation and interaction analyses experiments were performed at 25° C.
Control surfaces were prepared similarly without protein derivatization and were utilized as a reference surfaces for compound binding experiments.
Zero concentration blank buffer cycles were included as negative control samples.
Data analysis was carried out using Biacore T100 evaluation software v1.1.1. […] Solvent correction was then applied as described previously.

[3] = test system: C3H10T1/2; assay: Induction of osteogenic differentiation (modulation of osteoblast differentiation); conditions: Mus musculus, C3H 10T1/2, read-out: IC50 (nM) C3H10T1/2
Description: Using assays previously described in Dwyer et al., J. Biol. Chem. 282, (2007), 8959-68 and Nakamura et al., Biochm. […] Res. Comm., 237 (1997) 465-9, select compounds of the invention were screened for their ability to modulate osteoblast differentiation.

T1 sequence (Q15465 24-197 limits assumed, species assumed): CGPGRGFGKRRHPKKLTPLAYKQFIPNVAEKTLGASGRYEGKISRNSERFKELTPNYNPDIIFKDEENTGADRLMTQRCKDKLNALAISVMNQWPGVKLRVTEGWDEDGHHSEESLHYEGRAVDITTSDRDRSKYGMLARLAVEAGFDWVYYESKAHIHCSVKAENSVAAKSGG

SMILES: CC(C)(C)OC(=O)N[C@@H]1C/C=C/CCC(=O)N[C@H](c2ccccc2)COC1=O
ring closure, yield of all isomers ([1]; from C=CCCC(=O)N[C@@H](COC(=O)[C@@H](CC=C)NC(=O)OC(C)(C)C)c1ccccc1, Grubbs II, DCM, 20.0 mM, 25.0 °C, 3.0 h): 64%

SMILES: CC(C)(C)OC(=O)N[C@@H]1C/C=C/CCC(=O)OC[C@@H]2CCCN2C1=O
ring closure, yield of all isomers ([1]; from C=CCCC(=O)OC[C@@H]1CCCN1C(=O)[C@@H](CC=C)NC(=O)OC(C)(C)C, toluene): 19%

SMILES: CC(C)(C)[Si](C)(C)O[C@@H]1C/C=C/CCC(=O)N[C@H](c2ccccc2)COC1=O
ring closure, yield of all isomers ([1]; from C=CCCC(=O)N[C@@H](COC(=O)[C@@H](CC=C)O[Si](C)(C)C(C)(C)C)c1ccccc1, toluene): 65%

SMILES: CC1=CC[C@@H](C)C(=O)OC[C@@H](c2ccccc2)NC(=O)CC1
ring closure, yield of all isomers ([1]; from C=CC[C@@H](C)C(=O)OC[C@H](NC(=O)CCC(=C)C)c1ccccc1, toluene, 3 steps): 26%

SMILES: CN1C/C=C/CCC(=O)N[C@H](c2ccccc2)COC1=O
ring closure, yield of all isomers ([1]; from C=CCCC(=O)N[C@@H](COC(=O)N(C)CC=C)c1ccccc1, DCM): 45%

SMILES: C[C@@H]1C/C=C/CCC(=O)N[C@H](c2ccccc2)CN(C)C1=O
ring closure, yield of all isomers ([1]; from C=CCCC(=O)N[C@@H](CN(C)C(=O)[C@H](C)CC=C)c1ccccc1, toluene, 25.0 °C, 16.0 h): 68%

SMILES: C[C@@H]1C/C=C/CCC(=O)N[C@H]2CCC[C@@H]2OC1=O
ring closure, yield of all isomers ([1]; from C=CCCC(=O)N[C@H]1CCC[C@@H]1OC(=O)[C@H](C)CC=C, toluene): 25.5%

SMILES: C[C@@H]1C/C=C/CCC(=O)N[C@H]2CCC[C@H]2OC1=O
ring closure, yield of all isomers ([1]; from C=CCCC(=O)N[C@H]1CCC[C@H]1OC(=O)[C@H](C)CC=C, toluene): 32.4%

SMILES: C[C@@H]1C/C=C/CCC(=O)OC[C@H]2CCCN2C1=O
ring closure, yield of all isomers ([1]; from C=CCCC(=O)OC[C@H]1CCCN1C(=O)[C@H](C)CC=C, toluene, 3 steps): 20%

SMILES: C[C@@H]1C/C=C/CCCC(=O)N[C@H](c2ccccc2)COC1=O
ring closure, yield of all isomers ([1]; from C=CCCCC(=O)N[C@@H](COC(=O)[C@H](C)CC=C)c1ccccc1, toluene): 67%

SMILES: C[C@@H]1C/C=C/C[C@@H](NC(=O)OCC2c3ccccc3-c3ccccc32)C(=O)N[C@H](c2ccccc2)COC1=O
ring closure, yield of all isomers ([1]; from C=CC[C@@H](C)C(=O)OC[C@H](NC(=O)[C@@H](CC=C)NC(=O)OCC1c2ccccc2-c2ccccc21)c1ccccc1, DCM): 75%

SMILES: C[C@@H]1C/C=C/C[C@H](C)C(=O)N[C@H](c2ccccn2)COC1=O
ring closure, yield of all isomers ([1]; from C=CC[C@@H](C)C(=O)OC[C@H](NC(=O)[C@@H](C)CC=C)c1ccccn1, toluene): 89%

SMILES: C[C@@H]1C/C=C/C[C@H](C)C(=O)N[C@H](c2cccs2)COC1=O
ring closure, yield of all isomers ([1]; from C=CC[C@@H](C)C(=O)OC[C@H](NC(=O)[C@@H](C)CC=C)c1cccs1, toluene): 74.7%

SMILES: C[C@@H]1CC=CCCC(=O)N[C@@H](c2ccccc2)COC1=O
ring closure, yield of all isomers ([1]; from C=CCCC(=O)N[C@H](COC(=O)[C@H](C)CC=C)c1ccccc1, toluene, 25.0 °C, 16.0 h): 72%

SMILES: C[C@@H]1CC=CC[C@@H](O[Si](C)(C)C(C)(C)C)C(=O)N[C@H](c2ccccc2)COC1=O
ring closure, yield of all isomers ([1]; from C=CC[C@@H](C)C(=O)OC[C@H](NC(=O)[C@@H](CC=C)O[Si](C)(C)C(C)(C)C)c1ccccc1, toluene): 58%

SMILES: C[C@@H]1COC(=O)C(C)(C)C/C=C/CCC(=O)N1
ring closure, yield of all isomers ([1]; from C=CCCC(=O)N[C@H](C)COC(=O)C(C)(C)CC=C, toluene, 3 steps): 8%

SMILES: C[C@@H]1COC(=O)[C@H](C)C/C=C/CCC(=O)N1
ring closure, yield of all isomers ([1]; from C=CCCC(=O)N[C@H](C)COC(=O)[C@H](C)CC=C, toluene, 3 steps): 38%

SMILES: C[C@@H]1[C@@H](c2ccccc2)OC(=O)CC/C=C/C[C@@H](NC(=O)OC(C)(C)C)C(=O)N1C
ring closure, yield of all isomers ([1]; from C=CCCC(=O)O[C@H](c1ccccc1)[C@@H](C)N(C)C(=O)[C@@H](CC=C)NC(=O)OC(C)(C)C, toluene): 60%

SMILES: C[C@H]1C/C=C/CCC(=O)N[C@@H](c2ccccc2)COC1=O
ring closure, yield of all isomers ([1]; from C=CCCC(=O)N[C@H](COC(=O)[C@@H](C)CC=C)c1ccccc1, toluene, 25.0 °C, 16.0 h): 74%

SMILES: C[C@H]1C/C=C/CCC(=O)OC[C@@H]2CCCN2C1=O
ring closure, yield of all isomers ([1]; from C=CCCC(=O)OC[C@@H]1CCCN1C(=O)[C@@H](C)CC=C, toluene, 3 steps): 25%

SMILES: C[C@H]1[C@@H](c2ccccc2)OC(=O)CC/C=C/C[C@@H](NC(=O)OCC2c3ccccc3-c3ccccc32)C(=O)N1C
ring closure, yield of all isomers ([1]; from C=CCCC(=O)O[C@H](c1ccccc1)[C@H](C)N(C)C(=O)[C@@H](CC=C)NC(=O)OCC1c2ccccc2-c2ccccc21, toluene): 16%

SMILES: O=C1CCC=CCN(Cc2ccc(Cl)cc2)C(=O)OC[C@@H](c2ccccc2)N1
ring closure, yield of all isomers ([1]; from C=CCCC(=O)N[C@@H](COC(=O)N(CC=C)Cc1ccc(Cl)cc1)c1ccccc1, toluene): 25%

SMILES: CC1C/C=C/CCC(=O)N[C@H](c2ccccc2)COC1 (stereo partly drawn) [(3R,E)-11-methyl-3-phenyl-1-oxa-4-azacyclododec-8-en-5-one]
ring closure, yield of all isomers ([1]; from C=CCCC(=O)N[C@@H](COCC(C)CC=C)c1ccccc1, toluene, 2 steps): 0.5%

Kd [2]: > 100000 nM
SMILES: C[C@@H]1C/C=C/CCC(=O)O[C@H](c2ccccc2)CNC1=O [Compound BP, (2R,6R,E)-6-methyl-2-phenyl-1-oxa-4-azacyclododec-8-ene-5,12-dione]
ring closure, yield of all isomers ([1]; from C=CCCC(=O)O[C@@H](CNC(=O)[C@H](C)CC=C)c1ccccc1, toluene): 79%

Kd [2]: 1000 to 100000 nM | IC50 [3]: 1000 to 100000 nM
SMILES: O=C(C[C@@H]1C/C=C/CCC(=O)OC[C@@H]2CCCN2C1=O)NCc1ccc(Cl)cc1 [DP, N-(4-chlorobenzyl)-2-((9S,14aS,E)-3,10-dioxo-3,4,5,8,9,10,12,13,14,14a-decahydro-1H-pyrrolo[2,1-c][1,4]oxaazacyclododecin-9-yl)acetamide]

IC50 [3]: < 100 nM
SMILES: CS(=O)(=O)N[C@@H]1C/C=C/CCC(=O)N[C@H](c2ccccc2)COC1=O [Example A, N-((3R,11R,E)-5,12-dioxo-3-phenyl-1-oxa-4-azacyclododec-8-en-11yl)-methane sulfonamide]

Kd [2]: 1000 to 100000 nM
SMILES: C[C@@H]1C/C=C/CC(C)(C)C(=O)N[C@H](c2ccccc2)COC1=O [Example AY, (3R,11R,E)-6,6,11-trimethyl-3-phenyl-1-oxa-4-azacyclododec-8-ene-5,12-dione]
ring closure, yield of all isomers ([1]; from C=CC[C@@H](C)C(=O)OC[C@H](NC(=O)C(C)(C)CC=C)c1ccccc1, toluene): 81%

Kd [2]: < 100 nM | IC50 [3]: < 100 nM
SMILES: CC(=O)N[C@@H]1C/C=C/CCC(=O)N[C@H](c2ccccc2)COC1=O [Example B, N-((3R,11R,E)-5,12-dioxo-3-phenyl-1-oxa-4-azacyclododec-8-en-11-yl)acetamide]

Kd [2]: 1000 to 100000 nM
SMILES: C[C@@H]1C/C=C/CCC(=O)O[C@H](c2ccccc2)[C@H](C)N(C)C1=O [Example BC, (2R,3S,6R,E)-3,4,6-trimethyl-2-phenyl-1-oxa-4-azacyclododec-8-ene-5,12-dione]
ring closure, yield of all isomers ([1]; from C=CCCC(=O)O[C@H](c1ccccc1)[C@H](C)N(C)C(=O)[C@H](C)CC=C, toluene): 10%

Kd [2]: 1000 to 100000 nM
SMILES: C[C@@H]1C/C=C/CCC(=O)OC[C@@H]2CCCN2C1=O [Example BD, (9R,14aS,E)-9-methyl-4,5,8,9,12,13,14,14a-octahydro-1H-pyrrolo[2,1-c][1,4]oxaazacyclododecine-3,10-dione]
ring closure, yield of all isomers ([1]; from C=CCCC(=O)OC[C@@H]1CCCN1C(=O)[C@H](C)CC=C, toluene): 42%

Kd [2]: < 100 nM
SMILES: O=C1CC/C=C/C[C@@H](Cc2ccc(Cl)cc2)C(=O)NC[C@@H](c2ccccc2)O1 [Example BQ, (2R,6S,E)-6-(4-chlorobenzyl)-2-phenyl-1-oxa-4-azacyclododec-8-ene-5,12-dione]
ring closure, yield of all isomers ([1]; from C=CCCC(=O)O[C@@H](CNC(=O)[C@@H](CC=C)Cc1ccc(Cl)cc1)c1ccccc1, toluene): 51%

Kd [2]: > 100000 nM
SMILES: C[C@H]1C/C=C/CCC(=O)N[C@H](c2ccccc2)COC1=O [Example BS, (3R,11S,E)-11-methyl-3-phenyl-1-oxa-4-azacyclododec-8-ene-5,12-dione]
ring closure, yield of all isomers ([1]; from C=CCCC(=O)N[C@@H](COC(=O)[C@@H](C)CC=C)c1ccccc1, toluene): 44%

Kd [2]: 100 to 1000 nM | IC50 [3]: < 100 nM
SMILES: O=C(C[C@@H]1C/C=C/CCC(=O)N[C@H](c2ccc(F)cc2)COC1=O)NCc1ccc(Cl)cc1 [Example CS, N-(4-chlorobenzyl)-2-((3R,11S,E)-3-(4-fluorophenyl)-5,12-dioxo-1-oxa-4-azacyclododec-8-en-11-yl)acetamide]

Kd [2]: < 100 nM | IC50 [3]: 100 to 1000 nM
SMILES: O=C(C[C@@H]1C/C=C/CCC(=O)N[C@H](c2ccc(Cl)cc2)COC1=O)NCc1ccc(Cl)cc1 [Example CX, N-(4-chlorobenzyl)-2-((3R,11S,E)-3-(4-chlorophenyl)-5,12-dioxo-1-oxa-4-azacyclododec-8-en-11-yl)acetamide]

Kd [2]: < 100 nM | IC50 [3]: 100 to 1000 nM
SMILES: C[C@H]1CCCC[C@@H](CC(=O)NCc2ccc(Cl)cc2)C(=O)NC[C@@H](c2ccccc2)OC1=O [Example DB, N-(4-chlorobenzyl)-2-((2R,6S,11S)-11-methyl-5,12-dioxo-2-phenyl-1-oxa-4-azacyclododecan-6-yl)acetamide]

IC50 [3]: > 100000 nM
SMILES: CCOCCNC(=O)C[C@@H]1C/C=C/CCC(=O)O[C@H](c2ccccc2)[C@H](C)N(C)C1=O [Example DR, 2-((2R,3S,6S,E)-3,4-dimethyl-5,12-dioxo-2-phenyl-1-oxa-4-azacyclododec-8-en-6-yl)-N-(2-ethoxyethyl)acetamide]

IC50 [3]: > 100000 nM
SMILES: C[C@@H]1CCCCC(F)(F)C(=O)N[C@H](c2ccccc2)COC1=O [Example L, (3R,11R)-6,6-difluoro-11-methyl-3-phenyl-1-oxa-4-azacyclododecane-5,12-dione]

IC50 [3]: 100 to 1000 nM
SMILES: O=C1CC/C=C/CCC(=O)OCC(c2ccccc2)N1 (stereo not shown) [F]
